Results reported in PubChem BioAssay (NCI).
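Step 1: Grow cells in 96-well plates. Step 2: Expose to compound for 48 hours at 5 concentrations. Step 3: Interpolate endpoints linearly; if unreached, use highest concentration. At the TGI there is no net growth.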

Assays:
Assay in all cases: growth of human tumour cells (NCI), 48 h
[1] = system: SNB-19 CNS
[2] = system: OVCAR-8 ovarian
[3] = system: MOLT-4 leukemia
[4] = system: A498 renal
[5] = system: CCRF-CEM leukemia
[6] = system: ACHN renal
[7] = system: SK-MEL-5 melanoma
[8] = system: BT-549 breast
[9] = system: SF-268 CNS
[10] = system: HCT-116 colon
[11] = system: OVCAR-3 ovarian
[12] = system: HCT-15 colon
[13] = system: HOP-92 NSCLC
[14] = system: HT29 colon
[15] = system: A549 NSCLC
[16] = system: 786-0 renal
[17] = system: SR leukemia
[18] = system: HL-60(TB) leukemia
[19] = system: MCF7 breast
[20] = system: UACC-62 melanoma

SMILES	TGI [1] [µM]	TGI [2] [µM]	TGI [3] [µM]	TGI [4] [µM]	TGI [5] [µM]	TGI [6] [µM]	TGI [7] [µM]	TGI [8] [µM]	TGI [9] [µM]	TGI [10] [µM]	TGI [11] [µM]	TGI [12] [µM]	TGI [13] [µM]	TGI [14] [µM]	TGI [15] [µM]	TGI [16] [µM]	TGI [17] [µM]	TGI [18] [µM]	TGI [19] [µM]	TGI [20] [µM]
c1ccc(C(=NNc2nc3ccccc3[nH]2)c2ccccn2)nc1	> 100	> 33.2	0.062	4.94	0.257	0.698	1.69	97.9	> 55.3	10.2	> 100	> 100	0.182	12.1	> 89.9	> 100	0.271			
COc1ccc(N2CCN(c3ccc4c(c3)NCC(=O)N4)CC2)cc1	> 100	> 100	> 100		> 100	> 100	> 100	> 100	> 100	> 100	> 100	> 100	63.5	> 100	> 100	> 100	44.4	47.5	> 100	56.5
O=C1CCC2=C(CCC2)N1CCc1ccc2c(c1)OCO2	> 100		> 100		> 100	> 100	> 100	85.4	> 100	> 100		> 100		> 100	> 100	> 100	> 100	55.7	> 100	> 100
O=C1c2ccccc2C(=O)N1C(=S)c1ccccc1	> 100	> 100	> 100		> 100	> 100	> 100	> 100	> 100	> 100	> 100	> 100	> 100	> 100	> 100	> 100	> 100	> 100	> 100	> 100
COc1ccc(OC)c(CNc2ccc(O)c(C(=O)NCCc3ccc(F)cc3)c2)c1	54.1	37.6	21.5	59.9	> 100	> 100	19.9	73.6	29.1	27.1	28.8	44.9		47.5	> 100	68.4	12.1		59.2	25.7
COCC(=O)[C@]1(O)Cc2c(O)c3c(c(O)c2[C@@H](OC2CC(N)C(O)C(C)O2)C1)C(=O)c1c(OC)cccc1C3=O (stereo not given in full)	2.45	3.95	0.054	0.624	0.4		0.228	1.99	0.267	1.08	0.536	0.498	1.12	0.735	17.4	12.2	0.159	0.184		0.255
CC1NOC(NS(=O)(=O)c2ccc(N=Nc3c(O)c(C(=O)O)cc4ccccc34)cc2)C1C (stereo not given)	> 100	> 100	> 100		> 100	> 100	> 100	> 100	> 100	> 100	> 100	> 100	> 100	> 100	> 100	> 100	> 100	> 100	> 100	> 100
CCN(CC)C(=S)SNCCc1ccc(S(N)(=O)=O)cc1	50.9	25.2		> 65.1	36.8	34.3	24.4	30	35.9	26.4	43.9	38.5	35.1	27.1	26.5	27.8	> 49.4	> 67.2		> 94.1
CN(C)CCCNC(=O)c1cc(NC(=O)c2cc(NC(=O)c3cc(NC(=O)CCCn4ccc(CO)c4CO)cn3C)cn2C)cn1C	> 100		> 100		> 100	> 100	12.7	7.51	> 100	> 100	44.7	> 100	> 100		75.4	> 100	> 100	> 100	> 100	37.9
N=C(N)n1[nH]c2c(c1=O)CCC2	> 100	> 100			> 100	> 100	> 100	> 100	> 100	> 100	> 100	> 100	> 100	> 100	> 100	> 100	> 100	> 100	> 100	> 100
Clc1ccc(OCC2NC3C=CC32)cn1 (stereo not given)	> 100	> 100	> 100		> 100	> 100	> 100	> 100	> 100	> 100	> 100	> 100	> 100	> 100	> 100	> 100	> 100	> 100	> 100	> 100
O=c1[nH]c(=O)n(C2CC(O)C(CO)O2)cc1NN=NCc1ccccc1 (stereo not given)	> 100	> 100	> 100		> 100	> 100	> 100	> 100	> 100	> 100	> 100	> 100		> 100	> 100	> 100	> 100	> 100	> 100	> 100
Cc1ccnc(NC(=S)Nc2ccccc2Cl)c1	> 100	> 100	> 100	> 100	> 100		> 100	> 100	> 100	> 100	> 100	> 100		> 100	> 100	> 100	> 100	> 100	> 100	> 100
Cc1cc2nc3n(c2cc1C)C(c1c(F)cccc1F)SC3 (stereo not given)	53.4	> 100	47		64.3	40.6	28.2	43.7	56.2	28.1	91.2	> 10		38.9	42.4	43.4	42.9		34.2	> 10
CC1CCC2c3c([nH]c4ccccc34)C3C(=O)N(C4CCCCC4)C(=O)C3C2C1 (stereo not given)	32	42.5		37.9	> 100	27.8	36.1	32.7	29.8	24.2	39.8	> 100	44.9	> 100	50.3	19.6	> 100	> 100		28.8
O=C(c1ccc(Cl)cc1)N1N=C(c2ccc(Cl)cc2)CC1(O)c1cc(F)c(Cl)cc1Cl (stereo not given)	> 100	> 100	> 100	58.6	> 100	62.2	> 100	> 100	> 100	26.4	55.6	> 100	51.3	72.5	> 100	> 100		87	> 100	63.3
CC(C)(C)OC(=O)NC(CCCCNC(=O)OCc1ccccc1)C(=O)NC(CCCCNC(=O)OCc1ccccc1)C(=O)ON1C(=O)CCC1=O (stereo not given)	> 100	> 100	> 100		> 100		> 100	> 100		> 100		> 100	> 100	> 100	> 100	> 100	> 100	> 100	> 100	> 100
Sc1nnc(-c2ccccc2Nc2ccccc2-c2nnc(S)n2-c2ccccc2)n1-c1ccccc1	> 100	> 100	78.9		> 100	> 100	80.9	> 100	> 100	> 100	> 100	> 100	48.2	> 100		> 100	> 100	67.1	> 100	> 100
CC(O)(c1ccccc1)c1nccc2ccccc12 (stereo not given)	> 100	> 100	> 100	> 100	> 100	> 100	> 100	> 100	> 100	> 100	> 100	> 100	95.2	> 100	> 100	> 100		> 100	> 100	> 100
Cc1ccc(O)c(Cc2nc3ccccc3nc2-c2cccc(Br)c2)c1	69.7	> 100	84.7		> 100	> 100	> 100	> 100	> 100	> 100	> 100	66.9	> 100	> 100	> 100	> 100	> 100	> 100	> 100	> 100
